{"source": "paper PMC4982551", "about": "(MedChemComm, 2016)", "biological_target": "mPTPB (Mycobacterium tuberculosis, UniProt I6WXK4)", "sequence (I6WXK4 whole entry, looked up)": "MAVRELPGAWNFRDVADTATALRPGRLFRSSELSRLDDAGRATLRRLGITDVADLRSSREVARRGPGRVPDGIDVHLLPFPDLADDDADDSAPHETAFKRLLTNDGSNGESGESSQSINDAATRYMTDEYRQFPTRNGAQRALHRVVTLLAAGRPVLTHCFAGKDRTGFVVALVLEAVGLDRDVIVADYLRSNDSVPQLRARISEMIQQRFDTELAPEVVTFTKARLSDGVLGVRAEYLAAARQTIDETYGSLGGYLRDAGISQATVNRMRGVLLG", "assay": "PTP activity assay with pNPP substrate, mPTPB", "format": "biochemical", "details": "ratio of IC50 values"}
{"smiles": "Cc1ccc(S(=O)(=O)NNC(=O)COc2ccc3cc(C(O)(C(F)(F)F)C(F)(F)F)c(O)cc3c2)cc1", "note": "[7r]", "values": [{"measurement": "selectivity for mPTPB compared to SHP2, PTP1B, CD45, LYP, and FAP-1", "value": "more than 7 fold"}]}
